Measurements as given in PubChem BioAssay AID1963852 (Molecular Pharmacology Branch, DTP, NCI, 2024).
pIC50: −log10 of the molar value. Values joined by “and” are separate entries in the source; they are usually repeats but may differ in a detail not shown here. Equal entries are not always repeated.

System: 282377-053-R-J1-PDC complex spheroid viability
Assay: Anticancer human tumor 282377-053-R-J1-PDC patient-derived colon adenocarcinoma cell line growth inhibition [POLQ]
Conditions: for viability, T/C: stronger effect = lower value
Description: Multicellular complex tumor spheroid response to Polymerase (POL) inhibitors (novobiocin, ART-558, RP6685) in combination with a variety of drugs and investigational agents in selected tumor cell lines
The POL inhibitors (novobiocin, ART-558, and RP6685) were evaluated both individually and in combination with standard of care and investigational anticancer small molecules within a complex spheroid model of solid tumors. . Complex spheroids include a stromal component modeled by human endothelial cells (HUVEC) and fibroblasts modeled by human mesenchymal stem cells (MSCs). The concentration ranges selected for each drug and investigational agent were based upon clinically achievable concentrations if the clinical Cmax of the agent was known.
Compounds. The drugs and investigational agents: novobiocin (NSC847541), ART-558 (NSC835418), RP-6685 (NSC848927), peposertib (NSC802822), ceralasertib (NSC780249), elimusertib (NSC800525), camonsertib (NSC841442), AZD-1390 (NSC803789), olaparib (NSC753686), talazoparib (NSC767125), rucaparib (NSC756644), sotorasib (NSC818433), MRTX-1133 (NSC836407), SN-38 (NSC673596), topotecan (NSC609699), epotoside (NSC141540), doxorubicin (NSC123127), gemcitabine (NSC613327), 5-fluorouracil (NSC19893), paclitaxel (NSC125973), vemurafenib (NSC761431), MSA-2 (NSC828583), SN-011 (NSC837082), adavosertib (NSC754352), prexasertib (NSC758257), carboplatin (NSC241240) and oxaliplatin (NSC266046), were obtained from the National Cancer Institute (NCI) Developmental Therapeutics Program Chemical Repository (21). The FDA-approved anticancer drug set is available from the Developmental Therapeutics Program at https://dtp.cancer.gov/organization/dscb/obtaining/. […] The stock solutions were prepared in dimethyl sulfoxide (DMSO, Sigma-Aldrich, St. Louis, MO, cat. D2650), except for the platinum compounds which were prepared in saline (Quality Biological, Gaithersburg, MD, cat. 114-055-101), at 800-fold the tested concentration and stored at -70 degrees C prior to their use. All drugs and investigational agents were tested over a range starting from a high concentration at or near the clinical Cmax and decreasing in half-log increments. If the clinical Cmax for an agent had not been determined, the highest concentration tested was 10 microM, except for SN-38, which was tested at a high concentration of 1 microM.
Cell Culture. All cells were maintained in an incubator at 37 degrees C and 5% CO2 with 95% humidity. The PDC lines were cultured according to standard operating procedures established by the NCI PDMR (https://pdmr.cancer.gov). Table 3 of the manuscript, lists the cell lines along with the number of the three cell types plated to form the mct-spheroids and media for tumor cell growth. After thawing, all PDC lines, except 997537-175-T-J1-PDC and 415267-285-R-J2-PDC, were cultured in Matrigel-coated flasks prepared with a working solution of 1X Ham's F-12 nutrient mix, without supplementation (Thermo Fisher Scientific, cat. 11765054), 100 U/mL penicillin-streptomycin (Thermo Fisher Scientific, cat. 15140122), and 2.5% Matrigel (Corning Inc., Corning, NY, cat. 354248) for the first three passages. The two PDC lines 997537-175-T-J1-PDC and 415267-285-R-J2-PDC were cultured on uncoated flasks. The 857933-349-R-J2-PDC line was cultured in 6C/Colon 1B media containing advanced DMEM/F-12 (Thermo Fisher Scientific, cat. 12634028), 10 mM HEPES (Thermo Fisher Scientific, cat. 15630080), 1X GlutaMAX supplement (Thermo Fisher Scientific, cat. 35050061), 0.1 mg/mL primocin (InvivoGen, San Diego, CA, cat. ant-pm-2), 10% defined fetal bovine serum, heat inactivated (HyClone Laboratories Inc., Logan, UT, cat. SH30070.03HI), 50% L-WRN conditioned media (ATCC, cat. CRL-3276), 1.25 mM N-Acetyl-L-cysteine (Sigma-Aldrich, cat. A9165), 10 mM nicotinamide (Sigma-Aldrich, cat. N0636), 1X B-27 supplement (Thermo Fisher Scientific, cat. 17504044), 1X N-2 supplement (Thermo Fisher Scientific, cat. […]
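Further: spheroids exposed to compounds for seven days.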
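Wherever viability, T/C is given: 100% = DMSO vehicle control viability.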

Row | Structure (SMILES) | viability, T/C (compound 0.0316 µM) | viability, T/C (compound 0.1 µM) | viability, T/C (compound 0.316 µM) | viability, T/C (compound 1 µM) | pIC50 (curve of compound) | viability, T/C (compound 3.16 µM) | viability, T/C (compound 10 µM) | further results
1 | C=CCn1c(=O)c2cnc(Nc3ccc(N4CCN(C)CC4)cc3)nc2n1-c1cccc(C(C)(C)O)n1 | 98% and 116% and 91.7% | 103% and 95.6% and 93.7% | 109% and 85.2% and 82.7% | 81.5% and 87.5% and 68.1% | < 6.00 | – | – | viability, T/C (compound 0.00316 µM): 107% (2×) and 111%; viability, T/C (compound 0.01 µM): 119% and 95.2% and 85.9%
2 | CC(=O)O[C@H]1C(=O)[C@@]2(C)[C@H]([C@H](OC(=O)c3ccccc3)[C@]3(O)C[C@H](OC(=O)[C@H](O)[C@@H](NC(=O)c4ccccc4)c4ccccc4)C(C)=C1C3(C)C)[C@]1(OC(C)=O)CO[C@@H]1C[C@@H]2O | – | – | – | – | – | – | – | viability, T/C (compound 0.00949 µM): 93.6% and 91% and 48.6%; viability, T/C (compound 0.03 µM): 40.4% and 58.8% and 17.8%; viability, T/C (compound 0.0949 µM): 40.3% and 41.6% and 17.4%; viability, T/C (compound 0.3 µM): 42% and 47.9% and 19%; viability, T/C (compound 0.949 µM): 42.7% and 50.8% and 21.5%; viability, T/C (compound 3 µM): 47.6% and 61% and 28.4%
3 | CC1COCCN1c1cc(-c2ccnn2C)c2ccnc(-c3ccn[nH]3)c2n1 (stereo not drawn) | 93.1% and 105% and 77.6% | 67.1% and 76.9% and 73.5% | 55.3% and 44.6% and 61.7% | 37.6% and 31.7% and 57.4% | 6.39 and 6.57 and 5.68 | 35.6% and 27.5% and 46% | 25.1% and 22.8% and 38.4% | –
4 | CC1COCCN1c1cc(C2(S(C)(=N)=O)CC2)nc(-c2ccnc3[nH]ccc23)n1 (stereo not drawn) | 93% and 90.1% and 105% | 95.7% and 96.4% and 89.9% | 86.7% and 94.9% and 95.5% | 75.4% and 89.4% and 93.3% | 5.15 and < 5.00 and 5.10 | 57.4% and 74.8% and 62% | 46.7% and 55.4% and 47% | –
5 | CCCS(=O)(=O)Nc1ccc(F)c(C(=O)c2c[nH]c3ncc(-c4ccc(Cl)cc4)cc23)c1F | 93.1% and 82.2% and 78.1% | 85.3% and 76.1% and 69.5% | 85.1% and 71% and 76.2% | 72% and 64.2% and 46.1% | < 5.00 and 5.47 | 68.8% and 63.2% and 64.1% | 69.5% and 72.5% and 26.7% | –
6 | CC[C@@]1(O)C(=O)OCc2c1cc1n(c2=O)Cc2cc3c(CN(C)C)c(O)ccc3nc2-1 | 98.5% and 97.7% and 86.9% | 81.5% and 110% and 76.7% | – | – | < 7.00 | – | – | viability, T/C (compound 0.000316 µM): 98.9% and 101% and 105%; viability, T/C (compound 0.001 µM): 93.9% and 102% and 98.8%; viability, T/C (compound 0.00316 µM): 77% and 92.2% and 116%; viability, T/C (compound 0.01 µM): 119% and 104% and 94.3%
7 | CCc1c2c(nc3ccc(O)cc13)-c1cc3c(c(=O)n1C2)COC(=O)[C@]3(O)CC | 63.4% and 83.3% and 72.2% | 44.6% and 68.1% and 50.9% | 31.1% and 69.5% and 42% | 20% and 66.9% and 19.1% | – | – | – | viability, T/C (compound 0.00316 µM): 106% and 102% and 122%; viability, T/C (compound 0.01 µM): 69.4% and 103% and 64.5%
8 | CNCc1ccc(-c2[nH]c3cc(F)cc4c3c2CCNC4=O)cc1 | 94% and 107% and 86.8% | 89.3% and 94.2% and 86.3% | 113% and 102% and 114% | 117% and 101% and 95.7% | < 5.00 | 128% and 105% and 116% | 125% and 115% and 151% | –
9 | COC1C(OC(N)=O)C(O)C(Oc2ccc3c(O)c(NC(=O)c4ccc(O)c(CC=C(C)C)c4)c(=O)oc3c2C)OC1(C)C (stereo not drawn) | 94.6% [middle of 13 runs] | – | 105% [middle of 13 runs] | 101% [middle of 13 runs] | – | 101% [middle of 13 runs] | 101% [middle of 13 runs] | pIC50 (compound alone, run of 10/31/2023): < 5.00
10 | COc1cc(C2c3cc4c(cc3C(OC3OC5COC(C)OC5C(O)C3O)C3COC(=O)C23)OCO4)cc(OC)c1O (stereo not drawn) | 86.7% and 90% and 76.8% | 108% and 96.2% and 104% | 94.2% and 108% and 83% | 124% and 104% and 96.8% | < 5.00 | 82.7% and 105% and 70.8% | 58% and 81.8% and 50.9% | –
11 | COc1cccc(OCCCN)c1-c1cc(Nc2cnc(C#N)cn2)n[nH]1 | 76.9% and 82.1% and 72.1% | 49.5% and 74.7% and 75.6% | 37.2% and 63.1% and 52.5% | 26.8% and 44% and 43.3% | 6.95 and 6.14 and 6.27 | – | – | viability, T/C (compound 0.00316 µM): 107% and 99.4% and 101%; viability, T/C (compound 0.01 µM): 94.1% and 89.1% and 85.9%
12 | COc1cccc2c1C(=O)c1c(O)c3c(c(O)c1C2=O)CC(O)(C(=O)CO)CC3OC1CC(N)C(O)C(C)O1 (stereo not drawn) | 98.8% and 96% and 104% | 83.9% and 92.9% and 87.7% | 62.9% and 125% and 50.8% | 17.3% and 111% and 20.5% | 6.38 and 5.68 and 6.47 | 0.93% and 18.7% and 1.37% | 2.95% and 3.23% and 2.45% | –
13 | Cn1ncnc1[C@H]1c2n[nH]c(=O)c3cc(F)cc(c23)N[C@@H]1c1ccc(F)cc1 | 110% and 98.3% and 105% | 90.5% and 95.2% and 106% | – | – | < 7.00 | – | – | viability, T/C (compound 0.000316 µM): 97.4% and 91% and 104%; viability, T/C (compound 0.001 µM): 95.4% and 95.3% and 93.1%; viability, T/C (compound 0.00316 µM): 76.2% and 90.7% and 93.6%; viability, T/C (compound 0.01 µM): 108% (2×) and 102%
14 | Nc1ccc(C#CCN(C(=O)Cc2ncc(C(F)(F)F)cc2C(F)(F)F)c2ccc(F)cc2)nn1 | 92.4% [middle of 13 runs] | – | – | 99.5% [middle of 12 runs] | – | 102% [middle of 13 runs] | 114% [middle of 13 runs] | pIC50 (compound alone, run of 11/06/2023): < 5.00
15 | Nc1ccn(C2OC(CO)C(O)C2(F)F)c(=O)n1 (stereo not drawn) | 74% and 105% and 75.7% | 45.1% and 88.6% and 54.5% | 30.1% and 97.8% and 29.1% | 23.5% and 84.4% and 33.9% | – | 23.9% and 84% and 18.8% | 13.4% and 71.6% and 11.1% | –
16 | O=C(c1cc(Cc2n[nH]c(=O)c3ccccc23)ccc1F)N1CCN(C(=O)C2CC2)CC1 | 96.2% and 95.6% and 96.1% | 94.5% and 97.4% and 107% | 118% and 105% and 95.8% | 122% and 110% and 114% | < 5.00 | 100% and 97.5% and 110% | 95.8% and 105% and 110% | –
17 | O=c1[nH]cc(F)c(=O)[nH]1 | 91.8% and 103% and 97.7% | 109% and 108% and 95% | 86.7% and 107% and 114% | 96.3% and 108% and 78.9% | < 5.00 | 68.2% and 98.1% and 75.9% | 71% and 93.2% and 71.8% | –
